# Test system: phospho-p90 RSK (RSK1 Thr359/Ser363) in A375 (Braf V600E) cells
# Assay: Phospho-p90 RSK ELISA using A375 (Braf V600E) cells
# Assay type: cell-based
# Conditions: Homo sapiens, A-375, 2 hours compound treatment, read-out: Cellular Phospho-p90RSK IC50
row,IC50 [nM],SMILES
1,≤ 250,Cc1cc(-c2n[nH]c3cc4c(cc23)CN([C@@H]2CN(CC(F)F)C[C@H]2c2ccccc2)C(=O)N4)ccn1 (mixture of isomers) [Example 362]
2,≤ 250,Cc1cc(-c2n[nH]c3cc4c(cc23)CN([C@@H]2CN(CC#N)C[C@H]2c2ccccc2)C(=O)N4)ccn1 (mixture of isomers) [Example 366]
3,≤ 250,Cc1cc(-c2n[nH]c3cc4c(cc23)CN([C@@H]2CN(C)C[C@H]2c2ccccc2)C(=O)N4)ccn1 (racemic) [Example 241]
4,≤ 250,Cc1cc(-c2n[nH]c3cc4c(cc23)CN([C@@H]2CN(C)C[C@H]2c2ccccc2)C(=O)N4)cc(C)n1 (racemic) [Example 248]
5,≤ 250,CCN1C[C@@H](N2Cc3cc4c(-c5ccnc(C)c5)n[nH]c4cc3NC2=O)[C@H](c2ccccc2)C1 (racemic) [Example 278]
6,≤ 250,Cc1cc(-c2n[nH]c3cc4c(cc23)CN([C@@H]2CN(C(C)C)C[C@H]2c2ccccc2)C(=O)N4)ccn1 (racemic) [Example 279]
7,≤ 250,Cn1nccc1-c1n[nH]c2cc3c(cc12)CN([C@@H]1CCCN(Cc2ccccc2)C1)C(=O)N3 [Example 261]
8,> 1000,Cc1cc(-c2n[nH]c3cc4c(cc23)CN([C@@H]2CN(Cc3ccccc3)CC(F)(F)C2)C(=O)N4)ccn1 [Example 263]
9,≤ 250,Cc1cc(-c2n[nH]c3cc4[nH]c(=O)c(CC5CCCCC5)cc4cc23)ccn1 [Example 266]
10,≤ 250,Cc1ccc(-c2n[nH]c3cc4c(cc23)CN([C@@H]2CCN(CC(F)(F)F)C2)C(=O)N4)cn1 [Example 274]
11,250 to 1000,Cc1cc(-c2n[nH]c3cc4[nH]c(=O)c([C@@H](C)c5ccc(F)cc5)cc4cc23)ccn1 [Example 287]
12,250 to 1000,Cc1cc(-c2n[nH]c3cc4[nH]c(=O)c(C5CCCC5)cc4cc23)ccn1 [Example 289]
13,≤ 250,Cc1cc(-c2n[nH]c3cc4c(cc23)CN([C@@H]2CCCN(Cc3ccc(F)s3)C2)C(=O)N4)ccn1 [Example 290]
14,≤ 250,COc1ncc(-c2n[nH]c3cc4c(cc23)CN([C@@H]2CCCN(Cc3cccs3)C2)C(=O)N4)cn1 [Example 295]
15,> 1000,Cc1cc(-c2n[nH]c3cc4c(cc23)CN([C@H]2CN(C(C)C)C[C@@H]2c2ccccc2)C(=O)N4)ccn1 [Example 296]
16,> 1000,Cc1cc(-c2n[nH]c3cc4c(cc23)CN([C@H]2CN(CC(F)(F)F)C[C@@H]2c2ccccc2)C(=O)N4)ccn1 [Example 303]
17,250 to 1000,Cc1cc(-c2n[nH]c3cc4c(cc23)CN([C@H]2CN(C)C[C@@H]2c2ccccc2)C(=O)N4)cc(C)n1 [Example 307]
18,≤ 250,Cc1cc(-c2n[nH]c3cc4[nH]c(=O)c(C(C)c5ccc(F)cc5F)cc4cc23)ccn1 (stereo not drawn) [Example 312]
19,250 to 1000,Cc1cc(-c2n[nH]c3cc4c(cc23)CN([C@@H]2CCC[C@@H](NCc3ccccc3)C2)C(=O)N4)ccn1 [Example 313]
20,≤ 250,CC(c1ccccc1)c1cc2cc3c(-c4cnc(N)nc4)n[nH]c3cc2[nH]c1=O (stereo not drawn) [Example 334]

row,IC50 [nM],SMILES
1,> 1000,Cc1ncccc1-c1n[nH]c2cc3[nH]c(=O)c(C(C)c4ccccc4)cc3cc12 (stereo not drawn) [Example 335]
2,≤ 250,Cc1cc(-c2n[nH]c3cc4[nH]c(=O)c(C5CCCN(Cc6cc(F)ccc6F)C5)cc4cc23)ccn1 (stereo not drawn) [Example 336]
3,≤ 250,O=C1Nc2cc3[nH]nc(-c4ccnnc4)c3cc2CN1[C@@H]1CN(CC(F)(F)F)C[C@H]1c1ccccc1 [Example 340]
4,≤ 250,O=C1Nc2cc3[nH]nc(-c4cccnc4)c3cc2CN1[C@@H]1CN(CC(F)(F)F)C[C@H]1c1ccccc1 [Example 341]
5,≤ 250,O=C1Nc2cc3[nH]nc(-c4ccncc4)c3cc2CN1[C@@H]1CN(CC(F)(F)F)C[C@H]1c1ccccc1 [Example 342]
6,> 1000,Cc1cnccc1-c1n[nH]c2cc3[nH]c(=O)c(C(C)c4ccccc4)cc3cc12 (stereo not drawn) [Example 343]
7,≤ 250,CC(c1ccccc1)c1cc2cc3c(-c4ccnc(N)c4)n[nH]c3cc2[nH]c1=O (stereo not drawn) [Example 344]
8,≤ 250,CC(c1ccccc1)c1cc2cc3c(N4CCOCC4)n[nH]c3cc2[nH]c1=O (stereo not drawn) [Example 345]
9,≤ 250,CC(c1ccccc1)c1cc2cc3c(-c4ccc(=O)n(C)c4)n[nH]c3cc2[nH]c1=O (stereo not drawn) [Example 347]
10,≤ 250,Cc1ncc(-c2n[nH]c3cc4c(cc23)CN([C@@H]2CN(CC(F)(F)F)C[C@H]2c2ccccc2)C(=O)N4)cn1 [Example 349]
11,> 1000,CC(c1ccccc1)c1cc2cc3c(N4CCN(C)CC4)n[nH]c3cc2[nH]c1=O (stereo not drawn) [Example 358]
12,250 to 1000,Cc1cc(-c2n[nH]c3cc4[nH]c(=O)c(C5CCCN(Cc6ccccc6)C5)cc4cc23)cc(C)n1 (stereo not drawn) [Example 360]
13,> 1000,Cc1cc(-c2n[nH]c3cc4c(cc23)CN([C@H]2CCCN(Cc3ccccc3)C2)C(=O)N4)cc(C)n1 [Example 363]
14,> 1000,COc1ncc(-c2n[nH]c3cc4c(cc23)CN([C@H]2CCCN(Cc3ccccc3)C2)C(=O)N4)cn1 [Example 365]
15,≤ 250,COc1cc(-c2n[nH]c3cc4[nH]c(=O)c(C5CCCN(Cc6ccccc6)C5)cc4cc23)ccn1 (stereo not drawn) [Example 370]
16,≤ 250,Cc1cc(-c2n[nH]c3cc4c(cc23)CN(Cc2ccccc2)C(=O)N4)ccn1 [Example 372]
17,250 to 1000,Cc1ccc(-c2n[nH]c3cc4[nH]c(=O)c(C5CCCN(Cc6ccccc6)C5)cc4cc23)cn1 (stereo not drawn) [Example 373]
18,> 1000,Cc1cc(-c2n[nH]c3cc4c(cc23)CN([C@H]2CN(CC(F)F)C[C@@H]2c2ccccc2)C(=O)N4)ccn1 [Example 383]
19,> 1000,Cc1cc(-c2n[nH]c3cc4c(cc23)CN([C@H]2CN(CC(F)F)C[C@@H]2c2ccccc2)C(=O)N4)cc(C)n1 [Example 385]
20,≤ 250,Cc1cc(-c2n[nH]c3cc4c(cc23)CN([C@@H]2CN(CC(F)F)C[C@H]2c2ccccc2)C(=O)N4)cc(C)n1 [Example 386]

# Continued, molecule first:
row,SMILES,IC50 [nM]
1,Cc1cc(-c2n[nH]c3cc4c(cc23)CN([C@@H]2CN(CC(F)(F)F)C[C@H]2c2cccs2)C(=O)N4)ccn1 (mixture of isomers) [Example 321],≤ 250
2,Cc1cc(-c2n[nH]c3cc4c(cc23)CN([C@@H]2CN(C)C[C@H]2c2ccc(F)cc2)C(=O)N4)cc(C)n1 (racemic) [Example 305],≤ 250
3,Cc1cc(-c2n[nH]c3cc4c(cc23)CN(CC2CCOCC2)C(=O)N4)cc(C)n1 [Example 250],≤ 250
4,Cc1cc(-c2n[nH]c3cc4c(cc23)CN(CC2CCC2)C(=O)N4)ccn1 [Example 253],≤ 250
5,Cc1cc(-c2n[nH]c3cc4c(cc23)CN([C@@H]2CCN(C)C2)C(=O)N4)ccn1 [Example 255],> 1000
6,CCN1CC[C@@H](N2Cc3cc4c(-c5ccnc(C)c5)n[nH]c4cc3NC2=O)C1 [Example 256],> 1000
7,Cc1cc(-c2n[nH]c3cc4c(cc23)CN(CC2CC2)C(=O)N4)ccn1 [Example 258],≤ 250
8,Cn1cc(-c2n[nH]c3cc4c(cc23)CN([C@@H]2CCN(CC(F)(F)F)C2)C(=O)N4)cn1 [Example 259],≤ 250
9,CN(C)CCN1CCN(c2n[nH]c3cc4c(cc23)CN(Cc2ccc(F)c(Cl)c2)C(=O)N4)CC1 [Example 260],> 1000
10,Cc1cc(-c2n[nH]c3cc4c(cc23)CN(C(C)C2CCOCC2)C(=O)N4)ccn1 (stereo not drawn) [Example 262],≤ 250
11,Cn1nccc1-c1n[nH]c2cc3c(cc12)CN([C@@H]1CCN(CC(F)(F)F)C1)C(=O)N3 [Example 265],> 1000
12,Cc1cc(-c2n[nH]c3cc4c(cc23)CN([C@@H]2CCN(C(C)C)C2)C(=O)N4)ccn1 [Example 268],> 1000
13,COc1ncc(-c2n[nH]c3cc4c(cc23)CN([C@@H]2CCN(CC(F)(F)F)C2)C(=O)N4)cn1 [Example 276],≤ 250
14,COc1ccc(-c2n[nH]c3cc4c(cc23)CN([C@@H]2CCN(CC(F)(F)F)C2)C(=O)N4)cn1 [Example 277],≤ 250
15,Cc1cc(-c2n[nH]c3cc4c(cc23)CN(CCC2CC2)C(=O)N4)ccn1 [Example 283],> 1000
16,Cc1cc(-c2n[nH]c3cc4c(cc23)CN(C(C)c2nc(C)c(C)s2)C(=O)N4)ccn1 (stereo not drawn) [Example 286],≤ 250
17,Cc1cc(-c2n[nH]c3cc4c(cc23)CN(C(C)C2CCCC2)C(=O)N4)ccn1 (stereo not drawn) [Example 294],≤ 250
18,Cn1cc(-c2n[nH]c3cc4c(cc23)CN([C@@H]2CCCN(Cc3cccs3)C2)C(=O)N4)cn1 [Example 298],≤ 250
19,Cc1cc(-c2n[nH]c3cc4c(cc23)CN([C@H]2CCN(CC(F)(F)F)C2)C(=O)N4)ccn1 [Example 299],≤ 250
20,Cc1cc(-c2n[nH]c3cc4c(cc23)CN([C@H]2CCCN(CC(F)(F)F)C2)C(=O)N4)ccn1 [Example 309],250 to 1000
21,Cc1cc(-c2n[nH]c3cc4c(cc23)CN([C@H]2CCN(CC(F)(F)F)C2)C(=O)N4)cc(C)n1 [Example 310],250 to 1000
22,Cc1cc(-c2n[nH]c3cc4c(cc23)CN([C@@H]2CN(CC(F)(F)F)C[C@H]2C(C)(C)C)C(=O)N4)ccn1 [Example 329],> 1000
23,Cn1cc(-c2n[nH]c3cc4c(cc23)CN([C@@H]2CN(CC(F)(F)F)C[C@H]2c2ccccc2)C(=O)N4)ccc1=O [Example 346],≤ 250
24,COc1ncc(-c2n[nH]c3cc4c(cc23)CN([C@@H]2CN(CC(F)(F)F)C[C@H]2c2ccccc2)C(=O)N4)cn1 [Example 348],≤ 250
25,Cn1nccc1-c1n[nH]c2cc3c(cc12)CN([C@@H]1CN(CC(F)(F)F)C[C@H]1c1ccccc1)C(=O)N3 [Example 350],> 1000
26,Nc1ncc(-c2n[nH]c3cc4c(cc23)CN([C@@H]2CN(CC(F)(F)F)C[C@H]2c2ccccc2)C(=O)N4)cn1 [Example 351],250 to 1000
27,Cn1cc(-c2n[nH]c3cc4c(cc23)CN([C@@H]2CN(CC(F)(F)F)C[C@H]2c2ccccc2)C(=O)N4)cn1 [Example 352],≤ 250

# Test system: A375 cells
# Assay: Tumor cell line proliferation assay (CellTiter Glo), A375
# Assay type: cell-based
# Conditions: Homo sapiens, A-375, 96 h, read-out: A375 (V599E) Cell Proliferation IC50
row,IC50 [nM],SMILES
1,≤ 250,Cc1cc(-c2n[nH]c3cc4c(cc23)CN([C@@H]2CN(CC(F)F)C[C@H]2c2ccccc2)C(=O)N4)ccn1 (mixture of isomers) [Example 362]
2,> 1000,Cc1cc(-c2n[nH]c3cc4c(cc23)CN([C@@H]2CN(CC#N)C[C@H]2c2ccccc2)C(=O)N4)ccn1 (mixture of isomers) [Example 366]
3,≤ 250,Cc1cc(-c2n[nH]c3cc4c(cc23)CN([C@@H]2CN(C)C[C@H]2c2ccccc2)C(=O)N4)ccn1 (racemic) [Example 241]
4,≤ 250,Cc1cc(-c2n[nH]c3cc4c(cc23)CN([C@@H]2CN(C)C[C@H]2c2ccccc2)C(=O)N4)cc(C)n1 (racemic) [Example 248]
5,≤ 250,CCN1C[C@@H](N2Cc3cc4c(-c5ccnc(C)c5)n[nH]c4cc3NC2=O)[C@H](c2ccccc2)C1 (racemic) [Example 278]
6,≤ 250,Cc1cc(-c2n[nH]c3cc4c(cc23)CN([C@@H]2CN(C(C)C)C[C@H]2c2ccccc2)C(=O)N4)ccn1 (racemic) [Example 279]

# More lines, now with the values behind:
row,SMILES,IC50 [nM]
1,Cc1cc(-c2n[nH]c3cc4c(cc23)CN([C@@H]2CN(CC(F)(F)F)C[C@H]2c2cccs2)C(=O)N4)ccn1 (mixture of isomers) [Example 321],250 to 1000
2,Cc1cc(-c2n[nH]c3cc4c(cc23)CN([C@@H]2CN(C)C[C@H]2c2ccc(F)cc2)C(=O)N4)cc(C)n1 (racemic) [Example 305],≤ 250
